Test results published in ChEMBL document CHEMBL2417394, “Exquisite selectivity for human toll-like receptor 8 in substituted furo[2,3-c]quinolines” (J Med Chem, 2013).
Each block holds one compound with its values, some of them ahead of it. The source made the active and inactive calls. No cut-off for these calls is given here.

Key:
[1] = target: T1, Toll-like receptor 8 (Homo sapiens) (UniProt Q9NR97); experiment: Agonist activity at human TLR8 expressed in HEK293 cells co-transfected with MD2 and sAP assessed as induction of NF-kappaB activity by reporter gene assay; type: cell-based
T1 sequence (whole entry): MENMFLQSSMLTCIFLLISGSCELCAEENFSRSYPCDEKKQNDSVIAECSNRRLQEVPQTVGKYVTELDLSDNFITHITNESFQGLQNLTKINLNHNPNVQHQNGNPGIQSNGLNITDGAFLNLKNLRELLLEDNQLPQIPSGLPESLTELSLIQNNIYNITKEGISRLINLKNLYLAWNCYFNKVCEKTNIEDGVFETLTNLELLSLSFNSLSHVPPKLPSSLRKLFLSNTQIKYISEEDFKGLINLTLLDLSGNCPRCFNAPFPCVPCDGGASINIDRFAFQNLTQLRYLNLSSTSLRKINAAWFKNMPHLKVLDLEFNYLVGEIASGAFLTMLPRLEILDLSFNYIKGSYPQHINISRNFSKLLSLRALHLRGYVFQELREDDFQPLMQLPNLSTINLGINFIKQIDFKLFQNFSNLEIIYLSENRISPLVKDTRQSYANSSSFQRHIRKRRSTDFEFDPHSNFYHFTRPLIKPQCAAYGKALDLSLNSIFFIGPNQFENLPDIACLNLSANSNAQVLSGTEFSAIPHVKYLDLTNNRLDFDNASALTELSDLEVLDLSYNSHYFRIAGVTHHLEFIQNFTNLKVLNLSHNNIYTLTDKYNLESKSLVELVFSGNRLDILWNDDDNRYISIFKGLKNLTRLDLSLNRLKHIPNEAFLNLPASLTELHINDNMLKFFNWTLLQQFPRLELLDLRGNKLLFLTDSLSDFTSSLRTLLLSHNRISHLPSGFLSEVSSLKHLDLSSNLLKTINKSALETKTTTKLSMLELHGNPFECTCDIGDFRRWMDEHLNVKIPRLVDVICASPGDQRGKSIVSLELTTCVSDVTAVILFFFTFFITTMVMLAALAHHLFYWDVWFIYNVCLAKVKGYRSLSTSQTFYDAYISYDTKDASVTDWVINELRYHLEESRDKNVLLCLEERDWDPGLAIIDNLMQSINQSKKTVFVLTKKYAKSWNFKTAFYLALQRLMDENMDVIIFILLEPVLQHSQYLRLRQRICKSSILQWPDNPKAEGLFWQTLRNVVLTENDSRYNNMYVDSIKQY

[2] = target: T1, Toll-like receptor 8 (Homo sapiens); experiment: Modulation of human TLR8 expressed in HEK293 cells co-transfected with MD2 and sAP assessed as induction of NF-kappaB activity by reporter gene assay; type: cell-based
[3] = target: T1, Toll-like receptor 8 (Homo sapiens); experiment: Agonist activity at TLR8 in human PBMC assessed as increase of MIP1beta level after 12 hrs
[4] = target: T1, Toll-like receptor 8 (Homo sapiens); experiment: Agonist activity at TLR8 in human PBMC assessed as increase of MIP1alpha level after 12 hrs
[5] = target: T1, Toll-like receptor 8 (Homo sapiens); experiment: Agonist activity at TLR8 in human PBMC assessed as increase of GRO level after 12 hrs
[6] = target: T1, Toll-like receptor 8 (Homo sapiens); experiment: Agonist activity at TLR8 in human PBMC assessed as increase of G-CSF level after 12 hrs
[7] = target: T2, Nucleotide-binding oligomerization domain-containing protein 1 (Homo sapiens) (UniProt Q9Y239); experiment: Modulation of NOD1 (unknown origin)
T2 sequence (whole entry): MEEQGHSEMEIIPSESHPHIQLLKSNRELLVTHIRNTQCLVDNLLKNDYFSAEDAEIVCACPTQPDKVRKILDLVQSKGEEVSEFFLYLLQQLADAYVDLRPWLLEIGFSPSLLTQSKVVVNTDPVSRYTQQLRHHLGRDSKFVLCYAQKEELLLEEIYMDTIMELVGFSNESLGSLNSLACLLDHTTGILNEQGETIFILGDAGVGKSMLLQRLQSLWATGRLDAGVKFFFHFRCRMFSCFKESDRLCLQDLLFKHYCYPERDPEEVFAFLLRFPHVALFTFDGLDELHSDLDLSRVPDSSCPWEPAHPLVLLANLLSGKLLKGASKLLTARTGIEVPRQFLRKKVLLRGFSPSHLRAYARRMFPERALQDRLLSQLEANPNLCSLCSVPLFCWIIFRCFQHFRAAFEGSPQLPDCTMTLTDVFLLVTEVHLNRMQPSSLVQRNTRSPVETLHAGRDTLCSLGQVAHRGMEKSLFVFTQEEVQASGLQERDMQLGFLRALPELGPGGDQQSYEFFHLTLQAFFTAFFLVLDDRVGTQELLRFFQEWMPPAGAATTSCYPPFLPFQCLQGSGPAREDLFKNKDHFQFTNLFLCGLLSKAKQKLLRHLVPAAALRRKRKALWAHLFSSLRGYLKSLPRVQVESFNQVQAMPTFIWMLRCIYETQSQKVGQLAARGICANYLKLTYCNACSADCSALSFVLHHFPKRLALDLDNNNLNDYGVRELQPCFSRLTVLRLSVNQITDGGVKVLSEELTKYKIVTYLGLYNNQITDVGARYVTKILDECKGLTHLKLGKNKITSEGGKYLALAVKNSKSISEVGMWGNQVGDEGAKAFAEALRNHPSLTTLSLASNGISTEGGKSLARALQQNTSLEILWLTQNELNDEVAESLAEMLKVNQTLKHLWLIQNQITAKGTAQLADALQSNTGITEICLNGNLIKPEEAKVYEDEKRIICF

[8] = target: Nucleotide-binding oligomerization domain-containing protein 2 (Homo sapiens) (UniProt Q9HC29); experiment: Modulation of NOD2 (unknown origin)
[9] = target: T3, Toll-like receptor 9 (Homo sapiens) (UniProt Q9NR96); experiment: Modulation of human TLR9 expressed in HEK293 cells co-transfected with MD2 and sAP assessed as induction of NF-kappaB activity by reporter gene assay; type: cell-based
T3 sequence (whole entry): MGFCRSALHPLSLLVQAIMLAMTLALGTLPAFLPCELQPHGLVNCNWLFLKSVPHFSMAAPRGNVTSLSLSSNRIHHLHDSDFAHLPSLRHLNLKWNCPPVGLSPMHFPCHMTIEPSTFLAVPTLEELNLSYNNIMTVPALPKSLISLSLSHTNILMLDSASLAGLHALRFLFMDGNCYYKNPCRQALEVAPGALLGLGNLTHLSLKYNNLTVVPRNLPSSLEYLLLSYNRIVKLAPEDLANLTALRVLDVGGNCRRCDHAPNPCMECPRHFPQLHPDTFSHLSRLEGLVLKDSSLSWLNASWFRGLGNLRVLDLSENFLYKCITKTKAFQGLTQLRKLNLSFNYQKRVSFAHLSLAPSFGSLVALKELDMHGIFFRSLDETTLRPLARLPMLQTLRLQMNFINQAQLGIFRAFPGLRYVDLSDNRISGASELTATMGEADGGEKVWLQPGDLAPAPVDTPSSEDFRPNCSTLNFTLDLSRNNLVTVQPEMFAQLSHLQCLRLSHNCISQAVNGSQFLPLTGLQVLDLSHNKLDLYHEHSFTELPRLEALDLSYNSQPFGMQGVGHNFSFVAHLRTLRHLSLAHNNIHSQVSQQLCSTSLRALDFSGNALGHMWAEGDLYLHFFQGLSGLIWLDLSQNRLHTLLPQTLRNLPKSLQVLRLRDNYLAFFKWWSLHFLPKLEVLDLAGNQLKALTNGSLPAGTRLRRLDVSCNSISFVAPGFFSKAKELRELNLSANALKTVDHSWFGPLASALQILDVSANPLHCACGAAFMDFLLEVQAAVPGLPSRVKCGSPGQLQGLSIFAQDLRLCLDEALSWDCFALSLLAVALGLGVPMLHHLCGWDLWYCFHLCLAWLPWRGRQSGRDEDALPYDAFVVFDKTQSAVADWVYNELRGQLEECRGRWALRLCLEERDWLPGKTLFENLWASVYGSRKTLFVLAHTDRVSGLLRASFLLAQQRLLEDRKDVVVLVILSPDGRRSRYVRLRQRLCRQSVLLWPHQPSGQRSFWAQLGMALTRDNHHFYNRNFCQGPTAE

Chain of Nucleotide-binding oligomerization domain-containing protein 2 (Homo sapiens) (Q9HC29 whole entry, the tested form may be a part): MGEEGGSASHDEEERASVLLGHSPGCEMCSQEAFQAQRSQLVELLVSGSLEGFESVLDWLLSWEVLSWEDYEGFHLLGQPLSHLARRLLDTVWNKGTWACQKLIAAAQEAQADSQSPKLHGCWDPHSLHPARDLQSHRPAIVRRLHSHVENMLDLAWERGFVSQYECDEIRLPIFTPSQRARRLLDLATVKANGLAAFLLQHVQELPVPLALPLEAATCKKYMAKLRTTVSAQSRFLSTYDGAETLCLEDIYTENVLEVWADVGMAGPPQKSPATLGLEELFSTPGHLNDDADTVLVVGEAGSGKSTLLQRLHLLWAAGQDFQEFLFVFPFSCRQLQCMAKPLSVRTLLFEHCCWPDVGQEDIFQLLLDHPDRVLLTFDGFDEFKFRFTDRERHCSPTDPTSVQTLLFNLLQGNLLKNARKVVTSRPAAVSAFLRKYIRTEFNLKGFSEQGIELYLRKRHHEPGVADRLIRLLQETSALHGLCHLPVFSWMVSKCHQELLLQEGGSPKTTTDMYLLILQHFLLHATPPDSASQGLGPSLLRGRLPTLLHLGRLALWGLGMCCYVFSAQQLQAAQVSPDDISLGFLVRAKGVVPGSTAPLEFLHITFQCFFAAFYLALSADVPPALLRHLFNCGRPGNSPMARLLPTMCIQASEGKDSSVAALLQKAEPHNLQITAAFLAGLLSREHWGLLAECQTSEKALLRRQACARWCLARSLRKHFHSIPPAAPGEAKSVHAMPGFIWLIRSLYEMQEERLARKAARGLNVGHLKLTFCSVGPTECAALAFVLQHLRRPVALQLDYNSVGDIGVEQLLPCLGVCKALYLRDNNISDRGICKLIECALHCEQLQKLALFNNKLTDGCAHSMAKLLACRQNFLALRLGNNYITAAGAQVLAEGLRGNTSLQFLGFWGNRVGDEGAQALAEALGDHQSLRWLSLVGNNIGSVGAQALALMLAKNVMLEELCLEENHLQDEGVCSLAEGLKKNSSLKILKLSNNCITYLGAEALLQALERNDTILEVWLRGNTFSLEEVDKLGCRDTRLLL

Activity [1]: Active
Activity [2]: Active
SMILES: CCCCCCc1cc2c(o1)c(N)nc1ccccc12

Activity [3]: Active
Activity [4]: Active
Activity [5]: Active
Activity [6]: Active
SMILES: CCCc1nc2c(N)nc3ccccc3c2s1

Activity [1]: Active
Activity [2]: Active
SMILES: Cc1cc2c(o1)c(N)nc1ccccc12

Activity [1]: Active
Activity [2]: Active
SMILES: CCCc1cc2c(o1)c(N)nc1ccccc12

Activity [1]: Active
Activity [2]: Active
SMILES: CCCCCc1cc2c(o1)c(N)nc1ccccc12

Activity [1]: inactive
SMILES: Nc1nc2ccccc2c2ccoc12

SMILES: CCCCc1cc2c(o1)c(N)nc1ccccc12
Activity [7]: Active
Activity [8]: Active
Activity [9]: Active

Activity [3]: inactive
Activity [4]: inactive
Activity [5]: inactive
Activity [6]: inactive
SMILES: CCCCc1nc2c(N)nc3ccccc3c2n1Cc1ccccc1
